What was measured:
Assay type in all cases: cell-based
PfCRT^Dd2 [1] = target: T1, PfCRT^Dd2 (Plasmodium falciparum, UniProt Q9N623, A220S/I356T/K76T/M74I/N326S/N75E/Q271E/R371I); test: cell-based; conditions: for PfCRT-mediated [3H]CQ transport, trans-stimulation (% PfCRTDd2 control): PfCRTDd2 oocytes, normalised to oocyte type control; for [3H]CQ transport (% PfCRTDd2 control), trans-stimulation, PfCRTDd2: PfCRT-mediated component (background subtracted), mean ± SEM, SEM
Summary of the method: (§1)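 Transport measured in Xenopus oocytes expressing the transporters, 1.5 h at 27.5 °C in ND96 pH 5.5 unless noted. For trans-stimulation, VF-6 injected in 25 nL ND96 at pH 5.0–7.0 or Na^+-free (choline) buffer; intracellular levels based on ~400 nL oocyte volume. Ten oocytes per treatment, ≥4 experiments.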

PfCRT^3D7 = PfCRT^3D7 (Plasmodium falciparum, UniProt Q8IBZ9); test: cell-based; conditions: PfCRT3D7 oocytes, normalised to oocyte type control
Summary of the method: as §1

PfCRT^Ecu1110 [2] = target: T2, PfCRT^Ecu1110 (Plasmodium falciparum, UniProt Q9N623, A220S/I356L/K76T/N326D); test: cell-based; conditions: for PfCRT-mediated [3H]CQ transport, trans-stimulation (% PfCRTEcu1110 control): PfCRTEcu1110 oocytes, normalised to oocyte type control; for [3H]CQ transport (% PfCRTDd2 control), trans-stimulation, PfCRTEcu1110: PfCRT-mediated component (background subtracted), sheet title says normalised to PfCRTDd2 control, mean ± SEM, SEM
Summary of the method: as §1

PfCRT^Dd2 [3] = target: T1, PfCRT^Dd2; test: [3H]CQ uptake into Xenopus oocytes, cis-inhibition by unlabelled solute; conditions: PfCRTDd2 oocytes, background [3H]CQ accumulation subtracted, normalised to oocyte type control
Summary of the method: (§2)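 Washed oocytes (ten per treatment) were exposed to label in pH 5.5 ND96 for 1.5 h at 27.5 °C. Buffer was then removed, cells rinsed in ice-cold ND96, lysed in SDS and counted.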

PfCRT^Ecu1110 [4] = target: T2, PfCRT^Ecu1110; test: as above; conditions: for PfCRT-mediated [3H]CQ transport, cis-inhibition (% PfCRTEcu1110 control): PfCRTEcu1110 oocytes, background [3H]CQ accumulation subtracted, normalised to oocyte type control; for [3H]CQ transport (% PfCRTEcu1110 control), cis-inhibition, PfCRTEcu1110: PfCRT-mediated component (background subtracted), sheet title says normalised to PfCRTDd2 control, mean ± SEM, SEM
Summary of the method: as §2

[5] = [test solute]i = 5 mM (intracellular)
[6] = [test solute]i = 45 mM (intracellular; 30 mM for some solutes due to solubility)
[7] = [test solute]i = 5 mM (injected)
[8] = [test solute]i = 45 mM (30 mM for some solutes due to solubility)

Chain of PfCRT^3D7 (Q8IBZ9 59-398): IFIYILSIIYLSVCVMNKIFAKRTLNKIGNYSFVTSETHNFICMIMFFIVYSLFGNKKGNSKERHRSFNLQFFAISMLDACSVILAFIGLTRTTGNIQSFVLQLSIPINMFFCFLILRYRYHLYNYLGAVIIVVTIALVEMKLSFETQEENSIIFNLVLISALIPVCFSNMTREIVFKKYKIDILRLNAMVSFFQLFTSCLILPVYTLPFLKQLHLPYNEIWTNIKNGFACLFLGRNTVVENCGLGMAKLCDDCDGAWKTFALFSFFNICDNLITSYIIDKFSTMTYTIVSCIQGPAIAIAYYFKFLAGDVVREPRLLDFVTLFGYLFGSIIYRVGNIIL
T1 sequence (Q9N623 whole entry A220S/I356T/K76T/M74I/N326S/N75E/Q271E/R371I): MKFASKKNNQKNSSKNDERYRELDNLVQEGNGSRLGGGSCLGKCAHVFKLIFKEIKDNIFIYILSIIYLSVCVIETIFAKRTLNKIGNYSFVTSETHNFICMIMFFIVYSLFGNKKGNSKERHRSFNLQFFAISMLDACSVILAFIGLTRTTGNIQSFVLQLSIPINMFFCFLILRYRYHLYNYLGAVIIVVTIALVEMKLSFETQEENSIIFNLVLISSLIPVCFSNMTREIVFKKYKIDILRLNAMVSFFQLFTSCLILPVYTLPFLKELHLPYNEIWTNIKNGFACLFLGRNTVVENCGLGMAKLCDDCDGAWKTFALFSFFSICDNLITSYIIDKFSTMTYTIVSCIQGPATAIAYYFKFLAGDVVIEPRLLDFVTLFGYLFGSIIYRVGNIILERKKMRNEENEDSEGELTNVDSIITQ
T2 sequence (Q9N623 whole entry A220S/I356L/K76T/N326D): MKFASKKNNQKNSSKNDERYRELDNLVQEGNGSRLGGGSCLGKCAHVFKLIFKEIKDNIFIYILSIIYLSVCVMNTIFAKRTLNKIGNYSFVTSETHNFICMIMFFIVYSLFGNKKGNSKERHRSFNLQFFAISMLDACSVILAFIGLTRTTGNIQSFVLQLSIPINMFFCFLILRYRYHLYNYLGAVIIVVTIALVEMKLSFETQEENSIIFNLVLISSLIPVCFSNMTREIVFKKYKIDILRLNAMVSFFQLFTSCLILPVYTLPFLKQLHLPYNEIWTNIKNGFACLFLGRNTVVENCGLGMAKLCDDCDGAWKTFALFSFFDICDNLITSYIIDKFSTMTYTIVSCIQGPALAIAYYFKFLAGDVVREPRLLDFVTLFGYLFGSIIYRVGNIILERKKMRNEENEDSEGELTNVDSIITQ

Row | Substance | PfCRT-mediated [3H]CQ transport, trans-stimulation (% PfCRTDd2 control) (PfCRT^Dd2 [1]; [5]) | PfCRT-mediated [3H]CQ transport, trans-stimulation (% PfCRTDd2 control) (PfCRT^Dd2 [1]; [6]) | [3H]CQ transport (% PfCRTDd2 control), trans-stimulation, PfCRTDd2 (PfCRT^Dd2 [1]; [7]) | [3H]CQ transport (% PfCRTDd2 control), trans-stimulation, PfCRTDd2 (PfCRT^Dd2 [1]; [8]) | PfCRT-mediated [3H]CQ transport, trans-stimulation (% PfCRT3D7 control) (PfCRT^3D7; [5]) | PfCRT-mediated [3H]CQ transport, trans-stimulation (% PfCRT3D7 control) (PfCRT^3D7; [6]) | PfCRT-mediated [3H]CQ transport, trans-stimulation (% PfCRTEcu1110 control) (PfCRT^Ecu1110 [2]; [5]) | PfCRT-mediated [3H]CQ transport, trans-stimulation (% PfCRTEcu1110 control) (PfCRT^Ecu1110 [2]; [6]) | [3H]CQ transport (% PfCRTDd2 control), trans-stimulation, PfCRTEcu1110 (PfCRT^Ecu1110 [2]; [7]) | [3H]CQ transport (% PfCRTDd2 control), trans-stimulation, PfCRTEcu1110 (PfCRT^Ecu1110 [2]; [8]) | PfCRT-mediated [3H]CQ transport, cis-inhibition (% PfCRTDd2 control) (PfCRT^Dd2 [3]; [test solute] = 0.5 mM) | PfCRT-mediated [3H]CQ transport, cis-inhibition (% PfCRTDd2 control) (PfCRT^Dd2 [3]; [test solute] = 1 mM) | PfCRT-mediated [3H]CQ transport, cis-inhibition (% PfCRTDd2 control) (PfCRT^Dd2 [3]; [test solute] = 2 mM) | PfCRT-mediated [3H]CQ transport, cis-inhibition (% PfCRTEcu1110 control) (PfCRT^Ecu1110 [4]; [test solute] = 0.5 mM) | PfCRT-mediated [3H]CQ transport, cis-inhibition (% PfCRTEcu1110 control) (PfCRT^Ecu1110 [4]; [test solute] = 1 mM) | PfCRT-mediated [3H]CQ transport, cis-inhibition (% PfCRTEcu1110 control) (PfCRT^Ecu1110 [4]; [test solute] = 2 mM) | [3H]CQ transport (% PfCRTEcu1110 control), cis-inhibition, PfCRTEcu1110 (PfCRT^Ecu1110 [4]; [test solute] = 2 mM) | [3H]CQ transport (% PfCRTEcu1110 control), cis-inhibition, PfCRTEcu1110 (PfCRT^Ecu1110 [4]; [test solute] = 0.5 mM) | [3H]CQ transport (% PfCRTEcu1110 control), cis-inhibition, PfCRTEcu1110 (PfCRT^Ecu1110 [4]; [test solute] = 1 mM)
1 | VLSPAD [VD-6] | 101 ± 3.6 % PfCRTDd2 control | 98 ± 3.3 % PfCRTDd2 control | 101 ± 3.6 % PfCRTDd2 control | 98 ± 3.3 % PfCRTDd2 control | 97 ± 4.2 % PfCRT3D7 control | 95 ± 4.1 % PfCRT3D7 control | 98 ± 3.2 % PfCRTEcu1110 control | 98 ± 3.3 % PfCRTEcu1110 control | 30 ± 1.3 % PfCRTEcu1110 control | 30 ± 1.4 % PfCRTEcu1110 control | 47 ± 1.8 % PfCRTDd2 control | 28 ± 1.1 % PfCRTDd2 control | 29 ± 1.0 % PfCRTDd2 control | 58 ± 3.5 % PfCRTEcu1110 control | 48 ± 3.2 % PfCRTEcu1110 control | 39 ± 0.4 % PfCRTEcu1110 control | 12 ± 0.01 % PfCRTEcu1110 control |  | 
2 | DLPVG [DG-5] | 98 ± 1.0 % PfCRTDd2 control | 113 ± 1.1 % PfCRTDd2 control | 98 ± 1.0 % PfCRTDd2 control | 113 ± 1.1 % PfCRTDd2 control | 128 ± 2.2 % PfCRT3D7 control | 146 ± 3.2 % PfCRT3D7 control | 115 ± 1.5 % PfCRTEcu1110 control | 118 ± 1.1 % PfCRTEcu1110 control | 35 ± 1.5 % PfCRTEcu1110 control | 36 ± 1.3 % PfCRTEcu1110 control | 29 ± 0.6 % PfCRTDd2 control | 22 ± 1.3 % PfCRTDd2 control | 11 ± 0.1 % PfCRTDd2 control | 46 ± 1.8 % PfCRTEcu1110 control | 33 ± 2.7 % PfCRTEcu1110 control |  | 5.0 ± 0.05 % PfCRTEcu1110 control | 14 ± 0.5 % PfCRTEcu1110 control | 10 ± 0.6 % PfCRTEcu1110 control
3 | KEEAE [KE-5] | 97 ± 4.2 % PfCRTDd2 control | 99 ± 3.2 % PfCRTDd2 control | 97 ± 4.2 % PfCRTDd2 control | 99 ± 3.2 % PfCRTDd2 control | 98 ± 3.3 % PfCRT3D7 control | 96 ± 2.1 % PfCRT3D7 control | 98 ± 3.1 % PfCRTEcu1110 control | 98 ± 1.3 % PfCRTEcu1110 control | 30 ± 1.5 % PfCRTEcu1110 control | 30 ± 1.3 % PfCRTEcu1110 control | 68 ± 3.2 % PfCRTDd2 control | 60 ± 4.9 % PfCRTDd2 control | 50 ± 1.1 % PfCRTDd2 control |  | 61 ± 1.5 % PfCRTEcu1110 control | 54 ± 2.1 % PfCRTEcu1110 control | 17 ± 0.3 % PfCRTEcu1110 control | 21 ± 0.4 % PfCRTEcu1110 control | 19 ± 0.3 % PfCRTEcu1110 control

— article PMC7413254 (Nature Communications, 2020)
